# Source: patent publication US20250144187A1, “COMBINATION OF HYDROLASES AND ANTI-MICROORGANISM DRUGS AND USES THEREOF” (CENTRE FOR EYE AND VISION RESEARCH LIMITED, priority 2023, published 2025)
# How the values were obtained:
# MRSE [1] = test: High-throughput screening of 4989 compounds with human lysozyme; assay type: cell-based, Staphylococcus epidermis; settings: for MRSE Inhibition ratio (%): compound 2.5 μM + 1 mg/ml lysozyme relative to compound only
# MRSA = test: ATP, NADH and pyruvate levels, cefdinir/lysozyme; assay type: cell-based, Staphylococcus aureus; settings: 1 hour
# Description: 12) ATP, NADH and pyruvate levels. According to the described method [Liu Y et al., Adv Sci 7, 1902227 (2020)], mid-log-phase MRSA with an OD600 of 0.4 to 0.6 was treated with lysozyme, cefdinir or their combination at different concentrations. Those without any treatment served as control group. After 1 hour incubation at 37° C. bacteria with similar load (according to OD600, 1 ml bacteria were collected if the OD600 was 1) were collected, washed by cold PBS for 3 times. […] Here, 20 μl of each supernatant were added each well of white 96-well plate, in which each well had been pre-reactivated by 100 μl of ATP test solution (Beyotime. Co. Ltd, China), followed by luminometer measurement. To analyze the NAD^+/NADH ratio [Xue C et al., Front Pharmacol 12, 6000296 (2021)], half of lysis supernatants were frozen at −20° C. immediately and the rest half were firstly heated at 60° C. for 30 minutes in PCR machine to decompose NAD^+ if had, Next, these heated supernatants were further centrifuged at 18,000 g at 4° C. for 20 minutes to collect their supernatants. […] After 30 minutes incubation in the prevention of light, orange formazan was observed and then the absorbance at 450 nm was recorded. […] By recording the absorbance at 520 nm, the pyruvate level in each sample was figured out according to the standard formula. […]
# MRSA in ARPE-19 cells = test: Cell-based infection model, cefdinir/lysozyme; settings: 0.25 μg/ml cefdinir combined with 0.5 mg/ml lysozyme
# MRSE [2] = test: Check board broth micro-dilution assay, tedizolid phosphate with lysozyme; assay type: cell-based, Staphylococcus epidermis; settings: tedizolid phosphate and lysozyme
# Description: 2) Check board broth micro-dilution assays. According to standard two-fold dilution method [Sun. H et al., Nat. Commun. 11, 5263 (2020) tedizolid phosphate at different concentrations were added into fresh LB medium (or trypticase soy troth medium with 5% defibrinated horse blood) containing different concentrations of human lysozyme in 96-well plate. Then, 20 μl of 1.0×10^7 CFU/ml logarithmic cultures of MRSA or MRSE were added into each well of the plate and co-incubated overnight. Drug-free LB medium in the absence or presence of bacteria served as background control and growth control group, respectively. […] Thus, there would be a series of FICI values. In most of cases, the lowest one among these values was listed to reflect the best achieving degree of combination therapy. In terms of the lowest FICI, FICI≤0.5, 0.5<FICI<1 or FICI≥1, would indicate the combination has synergy, part synergy or non-synergy effects, respectively.
# MRSA and MRSE = test: Resistance development studies (serial passages), tedizolid phosphate/lysozyme; assay type: cell-based; settings: after 12-day serial passages
# Description: 5) Resistance development studies. […] H et al., Nat Commun. 11, 5263 (2020)], MRSA at exponential phase was diluted (1:1000) into fresh LB medium containing different concentrations of tedizolid phosphate, lysozyme alone or their combination. After cultured at 37° C. for 24 hours, the MIC of culture was determined by standard two-fold serial dilutions in 96-well microtiter plates. […] . All assays were performed in triplicate.
SMILES,"MRSE Combination (MRSE [1]; OD600 at 24-hour, compound 2.5 μM + 1 mg/ml lysozyme)","MRSE Drug only (MRSE [1]; OD600 at 24-hour, compound 2.5 μM without lysozyme)",MRSE Inhibition ratio (%) (MRSE [1]),MRSE Inhibition ratio (%) (MRSE [1]; listed as Ce ? dinir),increasing ATP level (MRSA; cefdinir (0.5 μg/ml) + lysozyme (0.5 mg/ml)) [fold],increase in the ratio of NAD+/NADH (MRSA; cefdinir treatment) [fold],drop of bacterial load in infected ARPE-19 cells (MRSA in ARPE-19 cells),bacterial load in infected ARPE-19 cells (MRSA in ARPE-19 cells; MOI 50),fractional inhibitory concentration index (FICI) (MRSE [2]),changes in the MIC level of tedizolid phosphate (MRSA and MRSE; combination therapy with lysozyme),changes in the MIC level of tedizolid phosphate (MRSA and MRSE; tedizolid phosphate alone) [fold]
"C=CC1=C(C(=O)O)N2C(=O)[C@@H](NC(=O)/C(=N\O)c3csc(N)n3)[C@H]2SC1 [cefdinir, Cefdinir]",0.0528,0.6206,above 90%,99.68,1.5,1.3,10^2 fold,10^3 CFU/ml,,,
"Cn1nnc(-c2ccc(-c3ccc(N4C[C@H](COP(=O)(O)O)OC4=O)cc3F)cn2)n1 [tedizolid phosphate, Tedizolid Phosphate]",,,,,,,,,< 0.023,remained unchanged,30
